The values that follow come from patent US20050148534A1, “Small molecule compositions and methods for increasing drug efficiency using compositions thereof” (priority 2003, published 2005).

The test system of data set [1] is HUVEC. In words: Cytotoxicity assay (monolayer), HUVEC. The conditions noted are these: Homo sapiens, read-out: HUVEC (EC50 Ave) ML. The class given is cell-based.
Data set [2] is described as follows: Cytotoxicity assay (soft agar), MCF-7. The conditions noted are these: human.
In data set [3] the test system is MCF-7 breast carcinoma. In words: Cytotoxicity assay (soft agar), MCF-7. The note with it: Homo sapiens.
Data set [4] can be described thus: Cytotoxicity assay (soft agar), HT-29. The conditions noted are these: human.
For data set [5], the system named is HT-29 colorectal carcinoma. The data set can be described thus: Cytotoxicity assay (soft agar), HT-29. The note with it: Homo sapiens.
Data set [6] relates to tubulin. The data set can be described thus: Fluorescence-based microtubule polymerization assay (MPA). The conditions noted are these: mean percentage of paclitaxel or vinblastine activity; 0.75-10 micromolar. The class given is biochemical. The procedure, abridged:
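Tubulin polymerization was followed by fluorescence (ex 360/em 405 nm) in a commercial kit with 1 mg/ml BSA added to every assay, glycerol being omitted for paclitaxel conjugates. Parent drugs and conjugates were tested at 0.75, 1.5, 3 and 10 micromolar final. Curves from the linear range of the dose responses were compared.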

In data set [7] the test system is HT-29 colorectal carcinoma. The data set can be described thus: Cytotoxicity assay (monolayer), HT-29. The class given is cell-based. The note with it: Homo sapiens. How it is done: (§1) Statistical Assoc., 81, 991-999, 1986.
(§2) Monolayer assays with tumor cell lines (MCF-7 breast carcinoma and HT-29 colorectal carcinoma from ATCC) were carried out in triplicate in 96-well plates with RPMI1640 medium containing 5% fetal bovine serum, 100 U/ml penicillin and 100 μg/ml streptomycin. Normal human foreskin fibroblasts (HFF #CC-2509) were from Cambrex and were cultured in FGM-2 medium. Exponentially growing cells (5,000 MCF-7 or HT-29; 1,500 HFF) were plated in 100 μl medium and incubated overnight (5% CO2, 37° C.). Compounds (20 pM to 20 μM final concentration, 6-8 doses) and vehicle (DMSO) controls were added and the incubation was continued for an additional 72 hours. Final cell density was determined by incubating cultures with 25 μl AlamarBlue reagent (BioSource, Camarillo, Calif.) for 4 hours, followed by determination of fluorescence at excitation of 544 nm and emission of 590 nm with a SpectroMax Gemini EM fluorescence plate reader (Molecular Devices, Sunnyvale, Calif.). EC50 values were generated from dose-response curves by a 4-parameter method using Softmax PRO software. Mean EC50s (±SD) represent the average of all tests carried out for all lots of a given compound. […] Statistical Assoc., 81, 991-999 (1986).

Data set [8] has as its system MCF-7 breast carcinoma. In words: Cytotoxicity assay (monolayer), MCF-7. The class given is cell-based. The note with it: Homo sapiens, MCF7. How it is done: as §1, §2
Data set [9] deals with Normal human foreskin fibroblasts (HFF). In words: Cytotoxicity assay (monolayer), HFF. The class given is cell-based. The note with it: Fibroblast. How it is done: as §1, §2
A short description of data set [10]: Serum stability in RPMI1640 medium containing 10% fetal bovine serum. The class given is in vitro ADME. The protocol:
The stability of conjugates was measured in RPMI1640 cell culture medium containing 10% fetal bovine serum. The serum-containing medium was pre-warmed at 37° C. for 3 min prior to addition of test articles. Test articles, prepared in DMSO as 5 mM stocks, were added to the cell culture media to a final concentration of […]. Aliquots ([…]) were withdrawn in triplicate at 0, 4, 8, 24 and 72 hours and combined with the same volume of ice-cold acetonitrile to terminate the reaction. The mixture was centrifuged at 2,000×g for 10 minutes. One part of the supernatant was mixed with four parts of deionized water to bring down the percentage of organic solvent. The diluted samples were then assayed by LC/MS for the test article. The natural log of the percent remaining was plotted versus time. A linear fit was used to determine the rate constant. The fit was truncated after the percent of remaining test article was less than 10%. The elimination half-lives associated with the disappearance of test articles were determined to compare their relative stability. The assays were carried out by Absorption Systems (Exton, Pa.).

Data set [11] has as its system HT29. The data set can be described thus: Cytotoxicity assay, HT29 SSA (SSA not explained). The class given is cell-based. The conditions noted are these: Homo sapiens, HT-29; read-out: HT29 (EC50 Ave) SSA.
For data set [12], the system named is MCF7. The data set can be described thus: Cytotoxicity assay, MCF7 SSA (SSA not explained). The conditions noted are these: Homo sapiens. The class given is cell-based.

Structures are written as SMILES. Like-named read-outs stand apart in the source and are kept apart here. Some results are limits rather than exact numbers.

`CC(=O)O[C@H]1C(=O)[C@@]2(C)[C@H]([C@H](OC(=O)c3ccccc3)[C@]3(O)C[C@H](OC(=O)[C@H](O)[C@@H](NC(=O)c4ccccc4)c4ccccc4)C(C)=C1C3(C)C)[C@]1(OC(C)=O)CO[C@@H]1C[C@@H]2O` [Paclitaxel]: the EC50 in data set [1] is below 0.1 µM; in data set [3] (MCF7, read-out: MCF7 (EC50 Ave) SA), below 0.1 µM; in [3] (MCF7, read-out: MCF-7 Soft Agar EC50), 0.006 ± 0.003 µM; in [5] (HT-29, read-out: HT29 (EC50 Ave) SA), below 0.1 µM; in data set [5] (HT-29, read-out: HT-29 Soft Agar EC50), 0.015 ± 0.002 µM; in data set [7] (mean ± SD, read-out: HT-29 Monolayer EC50), 0.005 ± 0.003 µM. Besides, the EC50 in data set [7] (monolayer, 72 hours, AlamarBlue, read-out: HT29 (EC50 Ave) ML) is below 0.1 µM; in data set [8] (mean ± SD, read-out: MCF-7 Monolayer EC50) it was 0.005 ± 0.002 µM; in data set [8] (monolayer, 72 hours, AlamarBlue, read-out: MCF7 (EC50 Ave) ML) it was below 0.1 µM; in data set [9] (mean ± SD, read-out: HFF Monolayer EC50), 0.009 ± 0.005 µM; in data set [9] (monolayer, 72 hours, AlamarBlue, read-out: HFF (EC50 Ave) ML) it was below 0.1 µM; in [11], below 0.1 µM. For the same molecule, the EC50 in data set [12] was below 0.1 µM. The values for the selectivity ratio in data set [2] and in [4] were 1.4 and 0.6, respectively. For the same molecule, the “Ave. MPA Act” value in [6] was “C (C>100)”. Further, the “Relative Percent Remaining at 0 hr” value in data set [10] (37° C., medium with 10% fetal bovine serum, 0 hr) is 100%. In data set [10] (37° C., medium with 10% fetal bovine serum, 4 hr), the “Relative Percent Remaining at 4 hr” value is 73%. In [10] (37° C., medium with 10% fetal bovine serum, 8 hr), the “Relative Percent Remaining at 8 hr” value is reported as 59%. In addition, the “Relative Percent Remaining at 24 hr” value in data set [10] (37° C., medium with 10% fetal bovine serum, 24 hr) came to 28%. Further, the “Relative Percent Remaining at 72 hr” value in data set [10] (37° C., medium with 10% fetal bovine serum, 72 hr) was below 3.0%. Also, the half-life in data set [10] (bovine) is 11 h.

What is called EC50 is the concentration at which the effect is half-maximal. The half-life is the time needed for the level to fall by half in the phase considered. Higher therefore signals slow decline.
